Read-outs that look alike come from different tables or passages of the source.
Key:
KRAS-WT = KRAS-WT (Homo sapiens, UniProt P01116); assay: SOS-catalyzed nucleotide exchange assay (Procedure A, TR-FRET), KRAS-WT; format: biochemical
How it was run: (§1)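 Signal ratio (520/495 nm, excitation 340 nm) reports Bodipy-GDP retention on biotinylated RAS after SOS-catalyzed exchange with 3 mM GTP. SOS was 40 nM, except 160 nM for G12V. Room-temperature exchange lasted 60 min (90 min for G12V), following a 60 min compound preincubation.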

AsPC-1 cells = assay: Cellular phospho-ERK assay, AsPC-1 cells (homozygous KRAS-G12D); format: cell-based; details: Homo sapiens, read-out: AsPC1 pERK IC50
How it was run: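 10k–15k cells/well, o/n attach; cpd 2 h, 37 °C, 10-pt 1:3 from 30 μM final; lyse with protease/phosphatase inhibitors 30 min RT; multiplex SureFire p-ERK + total ERK; IC50 via 4PL on ratio.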

KRAS-G12V = KRAS-G12V (Homo sapiens, UniProt P01116, G12V); assay: SOS-catalyzed nucleotide exchange assay (Procedure A, TR-FRET), KRAS-G12V; format: biochemical
KRAS-G12V, sequence (P01116 with tags, fused parts or gaps isoform P01116-2 G12V): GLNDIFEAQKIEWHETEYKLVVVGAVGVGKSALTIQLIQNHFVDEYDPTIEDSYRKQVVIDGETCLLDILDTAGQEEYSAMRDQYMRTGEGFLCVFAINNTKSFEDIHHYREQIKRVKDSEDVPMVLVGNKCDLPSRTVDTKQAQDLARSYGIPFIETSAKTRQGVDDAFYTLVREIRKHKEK
How it was run: as §1

KRAS-G12D = KRAS-G12D (Homo sapiens, UniProt P01116, G12D); assay: SOS-catalyzed nucleotide exchange assay (Procedure A, TR-FRET), KRAS-G12D; format: biochemical
KRAS-G12D, sequence (P01116 with tags, fused parts or gaps isoform P01116-2 G12D): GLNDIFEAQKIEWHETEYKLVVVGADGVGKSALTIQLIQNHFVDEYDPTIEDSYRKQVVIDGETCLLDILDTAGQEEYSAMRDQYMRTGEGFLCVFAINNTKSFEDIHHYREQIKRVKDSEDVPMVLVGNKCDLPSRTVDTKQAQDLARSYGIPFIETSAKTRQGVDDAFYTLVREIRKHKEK
How it was run: as §1

[1] = nucleotide exchange, read-out: KRAS WT GNE IC50
[2] = nucleotide exchange, read-out: KRAS G12V GNE IC50
[3] = nucleotide exchange, read-out: KRAS G12D GNE IC50
[4] = ASPC1, 2 h, 2 hours compound incubation

KRAS-WT, sequence (P01116 with tags, fused parts or gaps isoform P01116-2): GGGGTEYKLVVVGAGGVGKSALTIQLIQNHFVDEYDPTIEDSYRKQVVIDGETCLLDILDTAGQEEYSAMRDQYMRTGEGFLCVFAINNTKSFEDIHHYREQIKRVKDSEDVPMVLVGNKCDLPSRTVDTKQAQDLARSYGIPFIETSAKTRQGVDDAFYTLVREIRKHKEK

## Cc1cc2[nH]ncc2c(-c2nccn3c2c(Cl)c2nc(OC[C@@]45CCCN4C[C@H](F)C5)nc(N4CCOC[C@@](C)(O)C4)c23)c1C(F)(F)F [Ex-299, (S)-4-(10-chloro-2-(((2R,7aS)-2-fluorotetrahydro-1H-pyrrolizin-7a(5H)-yl)methoxy)-9-(6-methyl-5-(trifluoromethyl)-1H-indazol-4-yl)pyrazino[1′,2′:1,5]pyrrolo[3,2-d]pyrimidin-4-yl)-6-methyl-1,4-oxazepan-6-ol]
KRAS-WT; [1]
  IC50: 293 nM
AsPC-1 cells; ASPC1, 2 h, KRAS-G12D, 2 hours
  IC50: 1450 nM
KRAS-G12V; [2]
  IC50: 93.1 nM
KRAS-G12D; [3]
  IC50: 115 nM

## C#Cc1c(F)ccc2cc3[nH]ncc3c(-c3nccc4c5c(N6CCOC[C@@](C)(O)C6)nc(OC[C@@]67CCCN6C[C@H](F)C7)nc5n(C)c34)c12 [Ex-25, (6S)-4-(8-(5-ethynyl-6-fluoro-1H-benzo[f]indazol-4-yl)-2-(((2R,7aS)-2-fluorotetrahydro-1H-pyrrolizin-7a(5H)-yl)methoxy)-9-methyl-9H-pyrido[4′,3′:4,5]pyrrolo[2,3-d]pyrimidin-4-yl)-6-methyl-1,4-oxazepan-6-ol]
KRAS-WT; [1]
  IC50: 136 nM
AsPC-1 cells; ASPC1, 2 h, KRAS-G12D, 2 hours
  IC50: 1150 nM
KRAS-G12V; [2]
  IC50: 89.8 nM
KRAS-G12D; [3]
  IC50: 61.6 nM

## C[C@@]1(O)COCCN(c2nc(OC[C@]3(CN4CC5CC5C4)CC3(F)F)nc3sc4c(-c5c(C6(F)CC6)c(Cl)cc6[nH]ncc56)nccc4c23)C1 (stereo partly drawn) [Ex-237, (6S)-4-(2-(((1R)-1-((3-azabicyclo[3.1.0]hexan-3-yl)methyl)-2,2-difluorocyclopropyl)methoxy)-8-(6-chloro-5-(1-fluorocyclopropyl)-1H-indazol-4-yl)pyrido[4′,3′:4,5]thieno[2,3-d]pyrimidin-4-yl)-6-methyl-1,4-oxazepan-6-ol]
KRAS-WT; [1]
  IC50: 158 nM
AsPC-1 cells; [4]
  IC50: 293 nM
KRAS-G12V; [2]
  IC50: 32.9 nM
KRAS-G12D; [3]
  IC50: 24.9 nM

## Cc1cc2[nH]ncc2c(-c2nccc3c2sc2nc(OC[C@@]45CCCN4C[C@H](F)C5)nc(NCC4COC4)c23)c1C(F)(F)F [Ex-186, 2-(((2R,7aS)-2-fluorotetra-hydro-1H-pyrrolizin-7a(5H)-yl)methoxy)-8-(6-methyl-5-(trifluorometh-yl)-1H-indazol-4-yl)-N-(oxetan-3-ylmethyl)pyrido [4′,3′:4,5]thieno[2,3-d] pyrimidin-4-amine]
KRAS-WT; [1]
  IC50: 980 nM
AsPC-1 cells; [4]
  IC50: 2490 nM
KRAS-G12V; [2]
  IC50: 436 nM
KRAS-G12D; [3]
  IC50: 409 nM

## C[C@@]1(O)COCCN(c2nc(OC[C@]3(CN4C[C@H]5COC[C@H]5C4)CC3(F)F)nc3sc4c(-c5c(C6(F)CC6)c(Cl)cc6[nH]ncc56)nccc4c23)C1 [Ex-235, (6S)-4-(8-(6-chloro-5-(1-fluorocyclopropyl)-1H-indazol-4-yl)-2-(((R)-2,2-difluoro-1-(((3aR,6aS)-tetrahydro-1H-furo[3,4-c]pyrrol-5(3H)-yl)methyl)cyclopropyl)metho-xy)pyrido[4′,3′:4,5]thieno[2,3-d]pyrimidin-4-yl)-6-methyl-1,4-oxazepan-6-ol]
KRAS-WT; [1]
  IC50: 31.6 nM
AsPC-1 cells; [4]
  IC50: 206 nM
KRAS-G12V; [2]
  IC50: 19.4 nM
KRAS-G12D; [3]
  IC50: 3.86 nM

## C[C@@H]1CN(C[C@@]2(COc3nc(N4CCOC[C@@](C)(O)C4)c4c(n3)sc3c(-c5c(C6(F)CC6)c(Cl)cc6[nH]ncc56)nccc34)CC2(F)F)C[C@H](C)O1 [Ex-246, (6S)-4-(8-(6-chloro-5-(1-fluorocyclopropyl)-1H-indazol-4-yl)-2-(((R)-1-(((2R,6S)-2,6-dimethylmorpholino)methyl)-2,2-difluorocyclopropyl)methoxy)pyrido[4′,3′:4,5]thieno[2,3-d]pyrimidin-4-yl)-6-methyl-1,4-oxazepan-6-ol]
KRAS-WT; [1]
  IC50: 374 nM
AsPC-1 cells; [4]
  IC50: 1170 nM
KRAS-G12V; [2]
  IC50: 275 nM
KRAS-G12D; [3]
  IC50: 96.8 nM

## C[C@@H]1CCN1C[C@@]1(COc2nc(N3CCOC[C@@](C)(O)C3)c3c(n2)sc2c(-c4c(C5(F)CC5)c(Cl)cc5[nH]ncc45)nccc23)CC1(F)F [Ex-261, (6S)-4-(8-(6-chloro-5-(1-fluorocyclopropyl)-1H-indazol-4-yl)-2-(((R)-2,2-difluoro-1-(((R)-2-methylazetidin-1-yl)methyl)cyclopropyl)metho-xy)pyrido[4′,3′:4,5]thieno[2,3-d]pyrimidin-4-yl)-6-methyl-1,4-oxazepan-6-ol]
KRAS-WT; [1]
  IC50: 81.6 nM
AsPC-1 cells; [4]
  IC50: 369 nM
KRAS-G12V; [2]
  IC50: 58.3 nM
KRAS-G12D; [3]
  IC50: 17 nM

## Cc1cc2cnn(C)c2c(-c2nccc3c2sc2nc(OC[C@@]45CCCN4C[C@H](F)C5)nc(N4CCOC[C@@](C)(O)C4)c23)c1C(F)(F)F [Ex-157, (6S)-4-(8-(1,5-dimethyl-6-(trifluoromethyl)-1H-indazol-7-yl)-2-(((2R,7aS)-2-fluorotetrahydro-1H-pyrrolizin-7a(5H)-yl)methoxy)pyrido[4′,3′:4,5]thieno[2,3-d]pyrimidin-4-yl)-6-methyl-1,4-oxazepan-6-ol]
KRAS-WT; [1]
  IC50: 9650 nM
AsPC-1 cells; [4]
  IC50: 1310 nM
KRAS-G12V; [2]
  IC50: 4230 nM
KRAS-G12D; [3]
  IC50: 288 nM

## C[C@@]1(O)COCCN(c2nc(OC[C@]3(CN4CCC[C@H]4CF)CC3(F)F)nc3sc4c(-c5c(C6(F)CC6)c(Cl)cc6[nH]ncc56)nccc4c23)C1 [Ex-247, (6S)-4-(8-(6-chloro-5-(1-fluorocyclopropyl)-1H-indazol-4-yl)-2-(((R)-2,2-difluoro-1-(((S)-2-(fluoromethyl)pyrrolidin-1-yl)methyl)cyclopropyl)metho-xy)pyrido[4′,3′:4,5]thieno[2,3-d]pyrimidin-4-yl)-6-methyl-1,4-oxazepan-6-ol]
KRAS-WT; [1]
  IC50: 352 nM
AsPC-1 cells; [4]
  IC50: 977 nM
KRAS-G12V; [2]
  IC50: 320 nM
KRAS-G12D; [3]
  IC50: 74.6 nM

## C[C@@]1(O)COCCN(c2nc(OC[C@@]34CCCN3C[C@H](F)C4)nc3sc4c(-c5c6cc(F)ccc6cc6[nH]ncc56)nccc4c23)C1 [Ex-172, (6S)-4-(8-(6-fluoro-1H-benzo[f]indazol-4-yl)-2-(((2R,7aS)-2-fluorotetrahydro-1H-pyrrolizin-7a(5H)-yl)-methoxy)pyrido[4′,3′: 4,5]thieno[2,3-d]pyr-imidin-4-yl)-6-methyl-1,4-oxazepam-6-ol]
KRAS-WT; KRAS WT GNE IC50, nucleotide exchange
  IC50: 72.4 nM
AsPC-1 cells; ASPC1, 2 hours compound incubation
  IC50: 252 nM
KRAS-G12V; KRAS G12V GNE IC50, nucleotide exchange
  IC50: 49.2 nM
KRAS-G12D; KRAS G12D GNE IC50, nucleotide exchange
  IC50: 34.1 nM

## C[C@@]1(O)COCCN(c2nc(OC[C@]3(CN4C[C@H]5C[C@@H]4CO5)CC3(F)F)nc3sc4c(-c5c(C6(F)CC6)c(Cl)cc6[nH]ncc56)nccc4c23)C1 [Ex-257, (6S)-4-(2-(((R)-1-(((1R,4R)-2-oxa-5-azabicyclo[2.2.1]heptan-5-yl)methyl)-2,2-difluorocyclopropyl)methoxy)-8-(6-chloro-5-(1-fluorocyclopropyl)-1H-indazol-4-yl)pyrido[4′,3′:4,5]thieno[2,3-d]pyrimidin-4-yl)-6-methyl-1,4-oxazepan-6-ol]
KRAS-WT; [1]
  IC50: 42.5 nM
AsPC-1 cells; [4]
  IC50: 144 nM
KRAS-G12V; [2]
  IC50: 28.7 nM
KRAS-G12D; [3]
  IC50: 4.42 nM

## C[C@@]1(O)COCCN(c2nc(OC[C@]3(CN4CC5CC4(CF)C5)CC3(F)F)nc3sc4c(-c5c(C6(F)CC6)c(Cl)cc6[nH]ncc56)nccc4c23)C1 [Ex-259, (6S)-4-(8-(6-chloro-5-(1-fluorocyclopropyl)-1H-indazol-4-yl)-2-(((R)-2,2-difluoro-1-((1-(fluoromethyl)-2-azabicyclo[2.1.1]hexan-2-yl)methyl)cyclopropyl)metho-xy)pyrido[4′,3′:4,5]thieno[2,3-d]pyrimidin-4-yl)-6-methyl-1,4-oxazepan-6-ol]
KRAS-WT; [1]
  IC50: 79.7 nM
AsPC-1 cells; [4]
  IC50: 184 nM
KRAS-G12V; [2]
  IC50: 34.2 nM
KRAS-G12D; [3]
  IC50: 11.3 nM

## COC1CC2(C1)CN(C[C@@]1(COc3nc(N4CCOC[C@@](C)(O)C4)c4c(n3)sc3c(-c5c(C6(F)CC6)c(Cl)cc6[nH]ncc56)nccc34)CC1(F)F)C2 [Ex-263, (6S)-4-(8-(6-chloro-5-(1-fluorocyclopropyl)-1H-indazol-4-yl)-2-(((R)-2,2-difluoro-1-((6-methoxy-2-azaspiro[3.3]heptan-2-yl)methyl)cyclopropyl)metho-xy)pyrido[4′,3′:4,5]thieno[2,3-d]pyrimidin-4-yl)-6-methyl-1,4-oxazepan-6-ol]
KRAS-WT; [1]
  IC50: 11.4 nM
AsPC-1 cells; [4]
  IC50: 111 nM
KRAS-G12V; [2]
  IC50: 12.5 nM
KRAS-G12D; [3]
  IC50: 3.02 nM

## CO[C@]12CC[C@H]1CN(C[C@@]1(COc3nc(N4CCOC[C@@](C)(O)C4)c4c(n3)sc3c(-c5c(C6(F)CC6)c(Cl)cc6[nH]ncc56)nccc34)CC1(F)F)C2 [Ex-260, (6S)-4-(8-(6-chloro-5-(1-fluorocyclopropyl)-1H-indazol-4-yl)-2-(((R)-2,2-difluoro-1-(((1R,5S)-1-methoxy-3-azabicyclo[3.2.0]heptan-3-yl)methyl)cyclopropyl)metho-xy)pyrido[4′,3′:4,5]thieno[2,3-d]pyrimidin-4-yl)-6-methyl-1,4-oxazepan-6-ol]
KRAS-WT; [1]
  IC50: 486 nM
AsPC-1 cells; [4]
  IC50: 1210 nM
KRAS-G12V; [2]
  IC50: 185 nM
KRAS-G12D; [3]
  IC50: 41.6 nM
